Results: PubChem BioAssay AID248 (DTP/NCI, 2004)
Where “and” joins values, the source holds several entries; their conditions need not be identical. Equal values may be shown once. Toxic doses and inconclusive results are not listed. No stated cut-off is given here; in the data, active means T/C of 150% or more; inactive means T/C below 125%.

Tested on: L1210 leukemia ip in BDF1 mice, survival T/C
Assay: NCI In Vivo Anticancer Drug Screen. Data for tumor model L1210 Leukemia (intraperitoneal) in B6D2F1 (BDF1) mice
Details: endpoint: mean survival time, higher = longer survival
Outline: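 Tumor was transplanted into mice, which were then dosed with test compound or vehicle alone. Survival was recorded for each group, and the treated figure was expressed relative to the control figure.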

[1] = dose: 100.0 mg/kg/injection, schedule: Q01DX001 (ip), vehicle: Klucel (hydroxypropylcellulose) (HPC)
[2] = dose: 100.0 mg/kg/injection, schedule: Q04DX002 (ip), vehicle: Klucel (hydroxypropylcellulose) (HPC)
[3] = dose: 100.0 mg/kg/injection, schedule: Q04DX003 (ip), vehicle: Klucel (hydroxypropylcellulose) (HPC)
[4] = dose: 200.0 mg/kg/injection, schedule: Q01DX001 (ip), vehicle: Klucel (hydroxypropylcellulose) (HPC)
[5] = dose: 200.0 mg/kg/injection, schedule: Q04DX002 (ip), vehicle: Klucel (hydroxypropylcellulose) (HPC)
[6] = dose: 200.0 mg/kg/injection, schedule: Q04DX003 (ip), vehicle: Klucel (hydroxypropylcellulose) (HPC)
[7] = dose: 400.0 mg/kg/injection, schedule: Q01DX001 (ip), vehicle: Klucel (hydroxypropylcellulose) (HPC)
[8] = dose: 400.0 mg/kg/injection, schedule: Q04DX002 (ip), vehicle: Klucel (hydroxypropylcellulose) (HPC)
[9] = dose: 400.0 mg/kg/injection, schedule: Q04DX003 (ip), vehicle: Klucel (hydroxypropylcellulose) (HPC)
[10] = dose: 100.0 mg/kg/injection, schedule: Q04DX003 (ip), vehicle: saline with Tween-80
[11] = dose: 200.0 mg/kg/injection, schedule: Q04DX003 (ip), vehicle: saline with Tween-80
[12] = dose: 400.0 mg/kg/injection, schedule: Q04DX003 (ip), vehicle: saline with Tween-80
[13] = dose: 50.0 mg/kg/injection, schedule: Q01DX001 (ip), vehicle: carboxymethylcellulose (CMC)
[14] = dose: 100.0 mg/kg/injection, schedule: Q01DX001 (ip), vehicle: carboxymethylcellulose (CMC)
[15] = dose: 200.0 mg/kg/injection, schedule: Q01DX001 (ip), vehicle: carboxymethylcellulose (CMC)
[16] = dose: 400.0 mg/kg/injection, schedule: Q01DX001 (ip), vehicle: carboxymethylcellulose (CMC)
[17] = dose: 25.0 mg/kg/injection, schedule: Q01DX009 (ip), vehicle: saline with Tween-80
[18] = dose: 50.0 mg/kg/injection, schedule: Q01DX009 (ip), vehicle: saline with Tween-80

Measured: T/C

O=C(Nc1ccccn1)Nc1cc(C(F)(F)F)ccc1Cl
inactive: [1] 98 % of control | dose: 100.0 mg/kg/injection, schedule: Q01DX009 (ip), vehicle: Klucel (hydroxypropylcellulose) (HPC) 95 % of control and 90 % of control | [2] 95 % of control and 103 % of control | [3] 108 % of control | [4] 91 % of control | dose: 200.0 mg/kg/injection, schedule: Q01DX009 (ip), vehicle: Klucel (hydroxypropylcellulose) (HPC) 92 % of control | [5] 98 % of control and 103 % of control | [6] 97 % of control | [7] 98 % of control | dose: 400.0 mg/kg/injection, schedule: Q01DX009 (ip), vehicle: Klucel (hydroxypropylcellulose) (HPC) 95 % of control | [8] 93 % of control and 97 % of control | [9] 96 % of control

CCOC(=O)OCCCN(C)C
inactive: dose: 100.0 mg/kg/injection, schedule: Q01DX009 (ip), vehicle: saline with Tween-80 94 % of control | [10] 100 % of control | dose: 200.0 mg/kg/injection, schedule: Q01DX009 (ip), vehicle: saline with Tween-80 94 % of control | [11] 93 % of control | dose: 400.0 mg/kg/injection, schedule: Q01DX009 (ip), vehicle: saline with Tween-80 90 % of control | [12] 96 % of control

Cc1cc2c3ccccc3ncn2n1
inactive: [3] 101 % of control | [6] 103 % of control | [9] 109 % of control

CCN(CC)C(=O)Nc1cccc(N)c1
inactive: [2] 97 % of control | [5] 101 % of control | [8] 97 % of control

COc1ccccc1CCO
inactive: [13] 86 % of control | [14] 98 % of control | [15] 98 % of control | [16] 98 % of control

Cc1ccnc(SC#N)n1
inactive: dose: 5.0 mg/kg/injection, schedule: Q01DX001 (ip), vehicle: other 105 % of control | dose: 10.0 mg/kg/injection, schedule: Q01DX001 (ip), vehicle: other 105 % of control

COc1ccc(Oc2cccc3c2CCN(C)C3)cc1
inactive: dose: 12.5 mg/kg/injection, schedule: Q04DX002 (ip), vehicle: Klucel (hydroxypropylcellulose) (HPC) 102 % of control | dose: 25.0 mg/kg/injection, schedule: Q04DX002 (ip), vehicle: Klucel (hydroxypropylcellulose) (HPC) 115 % of control | dose: 50.0 mg/kg/injection, schedule: Q04DX002 (ip), vehicle: Klucel (hydroxypropylcellulose) (HPC) 97 % of control

C=CCCCCCCCCC(=O)N/N=C/c1ccc(NC(C)=O)cc1
inactive: dose: 12.5 mg/kg/injection, schedule: Q01DX001 (ip), vehicle: other 90 % of control | dose: 12.5 mg/kg/injection, schedule: Q01DX009 (ip), vehicle: other 95 % of control and 96 % of control | dose: 12.5 mg/kg/injection, schedule: Q04DX003 (ip), vehicle: other 96 % of control | dose: 25.0 mg/kg/injection, schedule: Q01DX001 (ip), vehicle: other 91 % of control | dose: 25.0 mg/kg/injection, schedule: Q01DX009 (ip), vehicle: other 114 % of control and 92 % of control | dose: 25.0 mg/kg/injection, schedule: Q04DX003 (ip), vehicle: other 102 % of control | dose: 50.0 mg/kg/injection, schedule: Q01DX009 (ip), vehicle: carboxymethylcellulose (CMC) 98 % of control and 100 % of control | dose: 50.0 mg/kg/injection, schedule: Q04DX003 (ip), vehicle: other 93 % of control | dose: 100.0 mg/kg/injection, schedule: Q01DX009 (ip), vehicle: carboxymethylcellulose (CMC) 96 % of control | dose: 100.0 mg/kg/injection, schedule: Q01DX009 (ip), vehicle: other 98 % of control | dose: 100.0 mg/kg/injection, schedule: Q04DX002 (ip), vehicle: carboxymethylcellulose (CMC) 90 % of control | dose: 100.0 mg/kg/injection, schedule: Q04DX003 (ip), vehicle: other 94 % of control | dose: 200.0 mg/kg/injection, schedule: Q01DX009 (ip), vehicle: carboxymethylcellulose (CMC) 100 % of control and 92 % of control | dose: 200.0 mg/kg/injection, schedule: Q01DX009 (ip), vehicle: other 89 % of control | [5] 114 % of control | dose: 200.0 mg/kg/injection, schedule: Q04DX002 (ip), vehicle: carboxymethylcellulose (CMC) 90 % of control | dose: 200.0 mg/kg/injection, schedule: Q04DX003 (ip), vehicle: other 92 % of control | dose: 400.0 mg/kg/injection, schedule: Q04DX002 (ip), vehicle: carboxymethylcellulose (CMC) 92 % of control | dose: 400.0 mg/kg/injection, schedule: Q04DX003 (ip), vehicle: other 86 % of control

COc1cc(/C=N\Nc2ccccc2[N+](=O)[O-])cc(OC)c1OC
inactive: [10] 86 % of control | [11] 91 % of control | [12] 89 % of control

O=C(CN1CCCCC1)N1CCN(C(=O)CN2CCCCC2)CC1
inactive: dose: 44.0 mg/kg/injection, schedule: Q01DX001 (ip), vehicle: carboxymethylcellulose (CMC) 98 % of control and 100 % of control | [13] 103 % of control | dose: 67.0 mg/kg/injection, schedule: Q01DX001 (ip), vehicle: carboxymethylcellulose (CMC) 87 % of control and 91 % of control | [14] 96 % of control | dose: 150.0 mg/kg/injection, schedule: Q01DX001 (ip), vehicle: carboxymethylcellulose (CMC) 91 % of control | [15] 113 % of control | [16] 103 % of control

CCN(CC)C(=O)c1cccc(COc2ccc(N3C(N)=NC(N)=NC3(C)C)cc2Cl)c1
inactive: [17] 107 % of control | [18] 107 % of control

CCNC(=O)NCCN1CCOCC1
inactive: dose: 100.0 mg/kg/injection, schedule: Q01DX009 (ip), vehicle: saline 95 % of control | dose: 200.0 mg/kg/injection, schedule: Q01DX009 (ip), vehicle: saline 98 % of control | dose: 400.0 mg/kg/injection, schedule: Q01DX009 (ip), vehicle: saline 104 % of control

CCOC(=O)CCCNc1ccccc1C(=O)OC
inactive: [14] 110 % of control | [15] 107 % of control | [16] 107 % of control

C1=Nc2ccccc2/C1=C/c1cccc2ccccc12
inactive: dose: 100.0 mg/kg/injection, schedule: Q04DX002 (ip), vehicle: saline with Tween-80 98 % of control | dose: 200.0 mg/kg/injection, schedule: Q04DX002 (ip), vehicle: saline with Tween-80 101 % of control

O=[N+]([O-])c1ccc(C(O)Nc2nccs2)o1 (centres undefined)
inactive: [17] 96 % of control | [18] 117 % of control

OC(c1ccccc1)c1nnc(C(O)c2ccccc2)nn1 (centres undefined)
inactive: [1] 92 % of control | [3] 94 % of control | [4] 95 % of control | [6] 93 % of control | [7] 95 % of control | [9] 100 % of control

CC(C)(CC(=O)NNc1ccccc1)C(=O)O
inactive: dose: 50.0 mg/kg/injection, schedule: Q01DX001 (ip), vehicle: saline 97 % of control | dose: 100.0 mg/kg/injection, schedule: Q01DX001 (ip), vehicle: saline 102 % of control | dose: 200.0 mg/kg/injection, schedule: Q01DX001 (ip), vehicle: saline 100 % of control | dose: 400.0 mg/kg/injection, schedule: Q01DX001 (ip), vehicle: saline 102 % of control
